From patent publication US12533348B2, “Ferroportin-inhibitors for the use in the treatment of transfusion-dependent beta-thalassemia (TDT)” (Vifor (International) AG, priority 2019, dated 2026)
“And” between values parts separate entries of the source, which are not always exact repeats. Identical values can stand only once. “Also recorded” adds a separate entry of the source.

Tests used:
[1] = system: Hbb^th3/+ mouse model of β-thalassemia intermedia; experiment: Combination study: organ weights and tissue iron (ICP-OES) in liver, spleen, kidney; conditions: for effect on relative spleen weight in th3/+ animals: end of study d23 (FIG. 4); for relative spleen weight: percent of body weight; for relative spleen weight / kidney Fe conc. / liver Fe conc. / spleen Fe conc.: th3/+ mice, DFX 30 mg/kg QD, Fpn127 120 mg/kg QD p.o., end of study (day 23), mean
Method: (§1) The aim of this study was to test whether the concurrent use of the iron chelator DFX administered once daily (QD) alone at 30 mg/kg or in combination with Fpn127 administered QD at 120 mg/kg for 3 weeks is causing any therapeutic interactions in a mouse model of β-thalassemia intermedia (Hbb^th3/+; B6; 129P—b1tm1Unc-b2tm1Unc/J, Jackson Laboratories, Stock Number: 002683).
(§2) Animals were euthanized 1 h after the last dose of DFX on study day 23 (dosing day 17).
(§3) On the final study day (day 23), spleen, liver, and kidneys were collected and snap frozen in liquid nitrogen for further analysis, as outlined below. Wet weight of spleen, liver, and kidneys were recorded.
(§4) Content of total Fe was determined in pieces of spleens, livers, and kidneys by ICP-OES in the Analytical Development group of Vifor (International) Ltd., St. Gallen.
(§5) Individual wet weights of organs were recorded. Individual values of total Fe were measured in livers, spleens, and kidneys. Individual values of total Fe content and concentration were calculated. Mean±SD of total Fe concentration and content in livers, spleens, and kidneys was calculated for each group.

[2] = system: Hbb^th3/+ mouse model of β-thalassemia intermedia; experiment: Combination study: erythroid differentiation stages in spleen by flow cytometry (Ter119/CD44/CD71); type: in vivo; conditions: for basophilic erythroblasts, frequency of parent / mature erythrocytes, frequency of parent / orthochromatic erythroblasts, frequency of parent / polychromatic erythroblasts, frequency of parent / pro-erythroblasts, frequency of parent: percent of parent Ter119+ spleen cells, female th3/+ mice, DFX 30 mg/kg QD, Fpn127 120 mg/kg QD p.o., end of study, mean
From the text: Distinct stages of erythroid cell differentiation in spleens of female mice were identified by flow cytometry (CANTOII cytometer, BD Biosciences) using PE-conjugated rat anti-mouse CD71 (transferrin receptor-1, eBioscience, Cat. 12-0711), APC-conjugated rat anti-mouse Ter119 (erythroid lineage marker, eBioscience, Cat. 17-5921) and APC-Cy7-conjugated rat anti-mouse CD44 (adhesion molecule that progressively decreases on the surface of developing erythroid cells, BioLegend. Cat. 103028) antibodies. Data were analyzed using FlowJo® software (FlowJo. LLC, version 10.1) Serum Parameters

[3] = system: Hbb^th3/+ mouse model of β-thalassemia intermedia; conditions: in vivo
Method: as §1, §2, §3, §4, §5

Hbb^th3/+ mice [4] = experiment: ROS levels in mature RBCs of Hbb^th3/+ mice, oral dosing 60 mg/kg twice daily, no BT; type: in vivo, mouse
rats = experiment: Serum iron after a single oral dose in rats; type: in vivo, rat; conditions: single oral dose of 100 mg/kg in rats
[5] = Half-life of orally administered Fpn127 in rodents; conditions: in vivo, po
Hbb^th3/+ mice [6] = experiment: Erythrocyte membrane-associated α-globin detection and quantification (TAU gel electrophoresis, densitometry); type: in vivo, mouse; conditions: Hbb^th3/+ animals vs vehicle-treated; TAU gel electrophoresis (FIG. 1)
From the text: Fresh EDTA-blood samples of mice from each group were pooled (blood from 2 mice/pool), lysed, and membrane lipids were extracted, as previously described (Sorensen S, Rubin E, Polster H, Mohandas N, Schrier S. “The role of membrane skeletal-associated alpha-globin in the pathophysiology of beta-thalassemia.” Blood. 1990 Mar. 15; 75(6):1333-6). The insoluble membrane fraction was separated by electrophoresis on triton acetic acid urea (TAU) gels and visualized by Coomassie staining (Alter B et al, Br J Haematol 44:527, 1980). The signal intensity of the α-globin bands was quantified by densitometry using LAS-4000 Image Analyzer with Multi Gauge v.3 software (GE Healthcare Life Sciences).
Blood samples are washed three times with ice cold DPBS in the presence of 1 mM EDTA and lysed in an ice-cold hypotonic lysis buffer (5 mM sodium phosphate, pH 7.6 containing Complete Ultra protease inhibitors, Roche). The soluble Hb is collected to serve as standard on the gel. The erythrocyte ghosts are further washed three times by resuspending in hypotonic lysis buffer and centrifugation at 21'000×g. Membrane lipids are extracted in 50 mM sodium borate pH 8, 1 mM EDTA, 0.5% Triton X-100 (Sigma-Aldrich) and protease inhibitors. […]

For `O=C(O)c1ccc(-n2nc(-c3ccccc3O)nc2-c2ccccc2O)cc1` [DFX, deferasirox, reference compound], which “effect on relative spleen weight in th3/+ animals” value [1] is on record?
Its value is “no effect”.

What about the relative spleen weight ([1]; all animals) of the same compound?
Its relative spleen weight is 1.98±0.26% and 1.98%.

What about the relative spleen weight ([1]; females) of the same compound?
Its relative spleen weight is 2.17%.

What about the relative spleen weight ([1]; males) of the same compound?
Its relative spleen weight is 1.79%.

And the “kidney Fe conc.” value ([1]; all animals)?
Its value is 125.1 ± 22.2 µg/g and 125.1 µg/g.

What about the “liver Fe conc.” value ([1]; all animals) of the same compound?
The value was 196.3 ± 62.5 µg/g and 196.3 µg/g.

What about the “spleen Fe conc.” value ([1]; all animals) of the same compound?
The value was 1553.0 ± 144.7 µg/g and 1553.0 µg/g.

And the “kidney Fe conc.” value ([1]; females)?
Its value is 126.6 µg/g.

And the “liver Fe conc.” value ([1]; females)?
The value was 241.2 µg/g.

What about the “spleen Fe conc.” value ([1]; females) of the same compound?
The value was 1511.0 µg/g.

And the “kidney Fe conc.” value ([1]; males)?
Its value is 123.6 µg/g.

And the “liver Fe conc.” value ([1]; males)?
The value was 151.5 µg/g.

And the “spleen Fe conc.” value ([1]; males)?
The value was 1602.0 µg/g.

What about the “basophilic erythroblasts, frequency of parent” value [2] of the same compound?
Its value is 8.21%.

And the “mature erythrocytes, frequency of parent” value [2]?
The value was 32.35%.

And the “orthochromatic erythroblasts, frequency of parent” value [2]?
Its value is 23.48%.

What about the “polychromatic erythroblasts, frequency of parent” value [2] of the same compound?
The value was 23.90%.

And the “pro-erythroblasts, frequency of parent” value [2]?
Its value is 3.29%.

And the “effect on kidney weight vs vehicle-treated Hbbth3/+ mice” value [3]?
Its value is “no effect on kidney weight”.

And the “effect on liver weight vs vehicle-treated Hbbth3/+ mice” value [3]?
Its value is “no effect on liver weight”.

For `O=C(NCc1ncccc1F)c1coc(CCNCCc2nc3ccccc3[nH]2)n1` [Fpn127], which “effect on total liver iron concentration vs vehicle-treated th3/+ mice” value ([1]; end of study (FIG. 3)) is on record?
Its value is “no effect on liver iron concentration”.

What about the “effect on total spleen iron concentration vs vehicle-treated th3/+ mice” value ([1]; end of study (FIG. 4)) of the same compound?
The value was “significantly increased”.

And the “effect on total kidney iron concentration vs vehicle-treated Hbbth3/+ mice” value ([1]; end of study (FIG. 5))?
Its value is “significantly reduced”.

What about the “effect on relative spleen weight in th3/+ animals” value [1] of the same compound?
The value was “significantly reduced”.

And the relative spleen weight ([1]; all animals)?
The relative spleen weight was 0.99±0.18% and 0.99%.

And the relative spleen weight ([1]; females)?
Its relative spleen weight is 1.12%.

What about the relative spleen weight ([1]; males) of the same compound?
The relative spleen weight was 0.86%.

What about the “kidney Fe conc.” value ([1]; all animals) of the same compound?
Its value is 126.7 ± 23.6 µg/g and 126.7 µg/g.

What about the “liver Fe conc.” value ([1]; all animals) of the same compound?
Its value is 332.2 ± 75.2 µg/g and 332.2 µg/g.

And the “spleen Fe conc.” value ([1]; all animals)?
The value was 2738.0 ± 300.8 µg/g and 2738.0 µg/g.

And the “kidney Fe conc.” value ([1]; females)?
Its value is 138.9 µg/g.

What about the “liver Fe conc.” value ([1]; females) of the same compound?
Its value is 371.8 µg/g.

And the “spleen Fe conc.” value ([1]; females)?
Its value is 2713.0 µg/g.

And the “kidney Fe conc.” value ([1]; males)?
Its value is 114.5 µg/g.

And the “liver Fe conc.” value ([1]; males)?
The value was 292.5 µg/g.

What about the “spleen Fe conc.” value ([1]; males) of the same compound?
Its value is 2760.0 µg/g.

And the “ROS levels in RBCs” value (Hbb^th3/+ mice [4]; 15 days of oral dosing 60 mg/kg twice daily (FIG. 2B), 60 mg/kg)?
Its value is “decreased ROS levels; also recorded: further decreased”.

And the “ROS levels in RBCs” value (Hbb^th3/+ mice [4]; day 8 of oral dosing 60 mg/kg twice daily (FIG. 2A))?
The value was “decreased ROS levels”.

What about the “duration of reduction in serum iron” value (rats) of the same compound?
The value was “at least 8 h”.

What about the half-life [5] of the same compound?
Its half-life is ~2 h.

What about the “RBC percentage in spleen” value ([2]; Hbbth3/+ mice (FIG. 9)) of the same compound?
Its value is “increased”.

And the “percentage of immature erythroid cells in spleen” value ([2]; Hbbth3/+ mice (FIG. 9))?
Its value is “markedly reduced”.

And the “basophilic erythroblasts, frequency of parent” value [2]?
Its value is 4.94%.

What about the “mature erythrocytes, frequency of parent” value [2] of the same compound?
The value was 53.52%.

What about the “orthochromatic erythroblasts, frequency of parent” value [2] of the same compound?
Its value is 14.65%.

What about the “polychromatic erythroblasts, frequency of parent” value [2] of the same compound?
The value was 9.44%.

What about the “pro-erythroblasts, frequency of parent” value [2] of the same compound?
The value was 1.74%.

And the “levels of toxic α-globin/heme aggregates in RBC membrane skeleton preparations” value (Hbb^th3/+ mice [6])?
The value was “significant dose-dependent decrease”.

And the “effect on kidney weight vs vehicle-treated Hbbth3/+ mice” value [3]?
Its value is “no effect on kidney weight”.

What about the “effect on liver weight vs vehicle-treated Hbbth3/+ mice” value [3] of the same compound?
Its value is “no effect on liver weight”.
